# Test results taken from patent US10125126B2, “N-cycloalkyl-N-[(heterocyclylphenyl)methylene]-(thio)carboxamide derivatives” (BAYER CROPSCIENCE AG, priority 2012, dated 2018).
# Assays:
# Sphaerotheca fuliginea = assay: In vivo preventive test on Sphaerotheca fuliginea (powdery mildew on cucurbits); conditions: 500 ppm of active ingredient, gherkin plants, 12 days after contamination
# In short: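 Gherkin plants ("Vert petit de Paris") grown at 24 °C were sprayed at cotyledon stage Z11; controls received acetone/tween/DMSO/water without active. Inoculation 24 h later by spraying cotyledons with 100 000 spores/mL. Efficacy (%) graded 12 days post-contamination versus controls.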
# [1] = log P by HPLC on a reversed-phase column (C 18), EEC Directive 79/831 Annex V.A8; format: physicochemical; conditions: for logP: HPLC on reversed-phase column (C 18), 40° C., 0.1% aqueous formic acid and acetonitrile, linear gradient 10% to 90% acetonitrile
# In short: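 Retention times were converted to log P by linear interpolation between two successive unbranched alkan-2-ones (3 to 16 carbon atoms) of known log P used for calibration. Elution ran at 40° C with a linear gradient from 10% to 90% acetonitrile against 0.1% aqueous formic acid.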
# Pyrenophora teres = assay: In vivo preventive test on Pyrenophora teres (barley); conditions: 500 ppm of active ingredient; barley plants; 14 days after contamination
# Experimental: In Vivo Preventive Test on Pyrenophora teres (Barley) […] Barley plants (“Plaisant” variety), sown in starter cups on a 50/50 peat soil pozzolana substrate and grown at 22° C., are treated at the 1 leaf stage (10 cm height) by spraying with the active ingredient prepared as described above. Plants, used as controls, are treated with the mixture of acetone/tween/DMSO/water not containing the active material. After 24 hours, the plants are contaminated by spraying the leaves with an aqueous suspension of Pyrenophora teres spores (12 000 spores per mL). The spores are collected from a 12-day-old culture. […] Grading (% of efficacy) is carried out 14 days after the contamination, in comparison with the control plants.
# Venturia inaequalis = assay: In vivo preventive test on Venturia inaequalis (apples); conditions: 100 ppm of active ingredient, evaluated 10 days after inoculation
# Experimental: In Vivo Preventive Test on Venturia inaequalis (apples) [table] To produce a suitable preparation of active compound, 1 part by weight of active compound is mixed with the stated amounts of solvent and emulsifier, and the concentrate is diluted with water to the desired concentration. To test for preventive activity, young plants are sprayed with the preparation of active compound at the stated rate of application. After the spray coating has dried on, the plants are inoculated with an aqueous conidia suspension of the causal agent of apple scab (Venturia inaequalis) and then remain for 1 day in an incubation cabinet at approximately 20° C. and a relative atmospheric humidity of 100%. The plants are then placed in a greenhouse at approximately 21° C. and a relative atmospheric humidity of approximately 90%.
# Puccinia recondita = assay: In vivo preventive test on Puccinia recondita (brown rust on wheat); conditions: 500 ppm of active ingredient; wheat plants; 12 days after contamination
# In short: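 Wheat plants ("Scipion") at 1-leaf stage, grown at 22° C, were sprayed with compound, then inoculated 24 h later with Puccinia recondita spores (100 000 spores per mL). Efficacy (%) graded 12 days after inoculation relative to solvent-treated controls.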
# [2] = tested on: Blumeria graminis f.sp. hordei; assay: In vivo preventive test on Blumeria graminis (barley); conditions: 500 ppm of active ingredient, evaluated 7 days after inoculation
# Experimental: In Vivo Preventive Test on Blumeria graminis (Barley) [table] To produce a suitable preparation of active compound, 1 part by weight of active compound or active compound combination is mixed with the stated amounts of solvent and emulsifier, and the concentrate is diluted with water to the desired concentration. To test for preventive activity, young plants are sprayed with the preparation of active compound or active compound combination at the stated rate of application. After the spray coating has been dried, the plants are dusted with spores of Blumeria graminis f.sp. hordei.
# Uromyces appendiculatus = assay: In vivo preventive test on Uromyces appendiculatus (bean rust); conditions: 500 ppm of active ingredient; bean plants; 11 days after contamination
# In short: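 Saxa bean plants at 2-leaf stage, grown at 24° C., sprayed preventively with compound; 24 h later inoculated with U. appendiculatus spores (150 000 spores per mL). Percent efficacy graded 11 days after inoculation versus solvent-treated controls.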
# Leptosphaeria nodorum = assay: In vivo preventive test on Leptosphaeria nodorum (wheat); conditions: 500 ppm of active ingredient, evaluated 8 days after inoculation
# Experimental: In Vivo Preventive Test on Leptosphaeria nodorum Test (Wheat) [table] To produce a suitable preparation of active compound, 1 part by weight of active compound or active compound combination is mixed with the stated amounts of solvent and emulsifier, and the concentrate is diluted with water to the desired concentration. To test for preventive activity, young plants are sprayed with the preparation of active compound or active compound combination at the stated rate of application. After the spray coating has been dried, the plants are sprayed with a spore suspension of Leptosphaeria nodorum. The plants remain for 48 hours in an incubation cabinet at approximately 20° C. and a relative atmospheric humidity of approximately 100%.
# Septoria tritici = assay: In vivo preventive test on Septoria tritici (wheat); conditions: 500 ppm of active ingredient; wheat plants; 24 days after contamination
# In short: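 Scipion wheat grown at 22° C, sprayed at 1-leaf stage (10 cm); controls received acetone/tween/DMSO/water without active. Inoculated 24 h later with S. tritici spores (500 000/mL), held 72 h at 18° C, 100% RH, then 21 days at 90% RH. % efficacy vs controls scored 24 days post-inoculation.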
# Alternaria brassicae = assay: In vivo preventive test on Alternaria brassicae (leaf spot on radish); conditions: 500 ppm of active ingredient; radish plants; 6 days after contamination
# Experimental: In Vivo Preventive Test on Alternaria brassicae (Leaf Spot on Radish) […] Radish plants (“Pernod Clair” variety), sown in starter cups on a 50/50 peat soil pozzolana substrate and grown at 17° C., are treated at the cotyledon stage by spraying with the active ingredient prepared as described above. Plants, used as controls, are treated with the mixture of acetone/tween/DMSO/water not containing the active material. After 24 hours, the plants are contaminated by spraying the cotyledons with an aqueous suspension of Alternaria brassicae spores (50 000 spores per mL). The spores are collected from a 15-day-old culture. The contaminated radish plants are incubated at 20° C. and at 100% relative humidity. Grading (% of efficacy) is carried out 6 days after the contamination, in comparison with the control plants.
# Botrytis cinerea = assay: In vivo preventive test on Botrytis cinerea (grey mould); conditions: 500 ppm of active ingredient; gherkin plants; 4 to 5 days after contamination
# Experimental: In Vivo Preventive Test on Botrytis cinerea (Grey Mould) […] Gherkin plants (“Vert petit de Paris” variety), sown in starter cups on a 50/50 peat soil pozzolana substrate and grown at 24° C., are treated at the Z11 cotyledon stage by spraying with the active ingredient prepared as described above. Plants, used as controls, are treated with the mixture of acetone/tween/DMSO/water not containing the active material. After 24 hours, the plants are contaminated by spraying the cotyledons with an aqueous suspension of cryopreserved Botrytis cinerea spores (50 000 spores per mL). The spores are suspended in a nutrient solution composed of 10 g/L of PDB, 50 g/L of D-Fructose, 2 g/L of NH4NO3 and 1 g/L of KH2PO4. The contaminated gherkin plants are incubated at 17° C. and at 90% relative humidity. Grading (% of efficacy) is carried out 4 to 5 days after the contamination, in comparison with the control plants.
SMILES,logP [1],chromatographic logP ([1]; logP),Efficacy (Sphaerotheca fuliginea),Efficacy (Pyrenophora teres),Efficacy (Venturia inaequalis),Efficacy (Puccinia recondita),Efficacy [2],Efficacy (Uromyces appendiculatus),Efficacy (Leptosphaeria nodorum),Efficacy (Septoria tritici),Efficacy (Alternaria brassicae),Efficacy (Botrytis cinerea),"pest or weed control at 500 ppm (Sphaerotheca fuliginea; Podosphaera fuliginea, 288 h, read-out: Efficacy)"
Cn1nc(C(F)F)c(C(=O)N(Cc2ccccc2C2(C)CO2)C2CC2)c1F (stereo not shown) [I.3],2.68,–,100%,88%,96%,94%,100%,100%,92%,100%,–,–,–
Cn1nc(C(F)F)c(C(=O)N(Cc2ccccc2-c2ccoc2)C2CC2)c1F [I.29],3.23,–,–,93%,–,81%,–,100%,–,96%,82%,100%,–
CC(C)c1ccc(-c2ccn(C)c2)cc1CN(C(=O)c1c(C(F)F)nn(C)c1F)C1CC1 [I.50],3.99,–,100%,100%,–,100%,–,99%,–,97%,96%,99%,–
Cn1cc(-c2ccccc2CN(C(=O)c2c(C(F)F)nn(C)c2F)C2CC2)cn1 [I.54],2.34,–,95%,–,–,80%,–,97%,–,100%,83%,97%,–
"Cc1csc(-c2ccccc2CN(C(=O)c2c(C(F)F)nn(C)c2F)C2CC2)c1 [I.100, N-cyclopropyl-3-(difluoromethyl)-5-fluoro-1-methyl-N-[2-(4-methyl-2-thienyl)benzyl]-1H-pyrazole-4-carboxamide]",–,3.99,–,95%,–,100%,100%,100%,83%,100%,–,80%,100%
Cc1cscc1-c1ccccc1CN(C(=O)c1c(C(F)F)nn(C)c1F)C1CC1 [I.105],3.90,–,100%,97%,–,100%,100%,100%,–,80%,–,–,–
Cn1nc(C(F)F)c(C(=O)N(Cc2cc(F)ccc2-c2coc3ccccc23)C2CC2)c1F [I.129],4.06,–,100%,86%,–,–,–,96%,–,90%,97%,92%,–
Cn1nc(C(F)F)c(C(=O)N(Cc2cc(Cl)ccc2-c2coc3ccccc23)C2CC2)c1F [I.130],4.44,–,100%,79%,–,81%,–,85%,–,93%,96%,–,–
Cn1nc(C(F)F)c(C(=O)N(Cc2ccccc2-c2coc3ccccc23)C2CC2)c1F [I.131],3.96,–,98%,93%,–,75%,–,–,–,96%,91%,100%,–
Cn1nc(C(F)F)c(C(=O)N(Cc2cc(F)ccc2-c2ccsc2Cl)C2CC2)c1F [I.136],4.04,–,100%,86%,–,98%,–,100%,–,93%,70%,–,–
Cn1nc(C(F)F)c(C(=O)N(Cc2ccccc2-c2ccc(Cl)s2)C2CC2)c1F [I.139],4.32,–,–,100%,100%,94%,–,100%,–,96%,73%,100%,–

# Continued, in another order:
logP [1],chromatographic logP ([1]; logP),SMILES,Efficacy (Sphaerotheca fuliginea),Efficacy (Pyrenophora teres),Efficacy (Venturia inaequalis),Efficacy (Puccinia recondita),Efficacy [2],Efficacy (Uromyces appendiculatus),Efficacy (Leptosphaeria nodorum),Efficacy (Septoria tritici),Efficacy (Alternaria brassicae),Efficacy (Botrytis cinerea),"pest or weed control at 500 ppm (Sphaerotheca fuliginea; Podosphaera fuliginea, 288 h, read-out: Efficacy)"
3.64,–,Cn1nc(C(F)F)c(C(=O)N(Cc2cc(Cl)ccc2-c2ccoc2)C2CC2)c1F [I.28],–,79%,–,94%,–,99%,–,97%,96%,–,–
4.09,–,Cc1csc(-c2ccc(F)cc2CN(C(=O)c2c(C(F)F)nn(C)c2F)C2CC2)c1 [I.101],100%,95%,–,100%,–,100%,–,100%,83%,99%,–
3.94,–,Cc1cscc1-c1ccc(F)cc1CN(C(=O)c1c(C(F)F)nn(C)c1F)C1CC1 [I.102],100%,–,–,100%,–,100%,–,95%,83%,94%,–
4.34,–,Cc1cscc1-c1ccc(Cl)cc1CN(C(=O)c1c(C(F)F)nn(C)c1F)C1CC1 [I.104],100%,70%,–,95%,–,100%,–,88%,83%,93%,–
4.41,–,Cn1nc(C(F)F)c(C(=O)N(Cc2cc(Cl)ccc2-c2ccsc2Cl)C2CC2)c1F [I.137],100%,79%,–,88%,–,–,–,97%,70%,–,–
4.39,–,Cn1nc(C(F)F)c(C(=O)N(Cc2cc(F)ccc2-c2csc3ccccc23)C2CC2)c1F [I.154],98%,71%,–,75%,–,–,–,96%,75%,–,–
